Where two headings read alike, the source gives them in different places.
Key:
[1] = Estimated shelf-life of formoterol in the compositions (Arrhenius kinetics); assay type: physicochemical
[2] = Decomposition kinetics (stability) of formoterol in aqueous solution; assay type: physicochemical
Text: In the embodiments herein, the compositions have a pH of about 2.0 to about 8.0. The particular pH of a given composition for long term storage provided herein may be determined empirically using standard stability assays well known to those of skill in the art (see, e.g., the Examples). […] In certain of the above embodiments, the compositions are formulated at a pH of about 4, 4.4 or 4.6 up to about 5.5, 5.7 or 6. In other embodiments, the pH is about 5.0.
In other of the above embodiments, the compositions further contain a buffer, including, but not limited to, citric acid/phosphate, acetate, barbital, borate, Britton-Robinson, cacodylate, citrate, collidine, formate, maleate, Mcilvaine, phosphate, Prideaux-Ward, succinate, citrate-phosphate-borate (Teorell-Stanhagen), veronal acetate, MES (2-(N-morpholino)ethanesulfonic acid), BIS-TRIS (bis(2-hydroxyethyl)imino-tris-(hydroxymethyl)methane), ADA (N-(2-acetamido)-2-iminodiacetic acid), ACES (N-(carbamoylmethyl)-2-aminoethanesulfonaic acid), PIPES (piperazine-N,N′-bis(2-ethanesulfonic acid)), MOPSO (3-(N-morpholino)-2-hydroxypropanesulfonic acid), BIS-TRIS PROPANE (1,3-bis(tris(hydroxy-methyl)methylamino)propane), BES (N,N-bis(2-hydroxyethyl)-2-amino-ethanesulfonaic acid), MOPS (3-(N-morpholino)propanesulfonic acid), TES (N-tris(hydroxymethyl)methyl-2-aminoethanesulfonic acid), HEPES (N-(2-hydroxyethyl)piperazine-N′-(2-eth-anesulfonic acid), DIPSO (3-(N,N-bis(2-hydroxyethyl)amino)-2-hydroxypropan-esulfonicacid), MOBS (4-(N-morpholino)butanesulfonic acid), TAPSO (3-(N-tris(hydroxymethyl)methyl-amino)-2-hydroxypropanesulfonic acid), TRIZMA® (tris(hydroxymethyl-aminomethane), HEPPSO(N-(2-hydroxyethyl)piperazine-N′-(2-hydroxy-propanesulfonic acid), POPSO (piperazine-N,N′-bis(2-hydroxypropane-sulfonic acid)), TEA (triethanolamine), EPPS (N-(2-hydroxyethyl)-piperazine-N′-(3-propanesulfonic acid), TRICINE (N-tris(hydroxy-methyl)methylglycine), GLY-GLY (glycylglycine), BICINE (N,N-bis(2-hydroxyethyl)glycine), HEPBS (N-(2-hydroxyethyl)piperazine-N′-(4-butanesulfonic acid)), TAPS(N-tris(hydroxymethyl)methyl-3-amino-propanesulfonic acid), AMPD (2-amino-2-methyl-1,3-propanediol), and/or any other buffers known to those of skill in the art. In one embodiment, the buffer is citric acid/phosphate buffer, acetate buffer, citrate buffer or phosphate buffer. In another embodiment, the buffer is a citrate buffer (citric acid/sodium citrate). […] Buffer concentrations for use herein include from about 0 or 0.01 mM to about 150 mM, or about 1 mM to about 20 mM. In one embodiment, the buffer concentration is about 5 mM. In another embodiment, the buffer concentration is about 1 mM to about 50 mM, or about 20 mM. […] The particular buffer and buffer concentration of a given composition for long term storage provided herein may be determined empirically using standard stability assays well known to those of skill in the art (see, e.g., the Examples).
Ionic strengths of the compositions provided herein are from about 0 to about 0.4, or from about 0.05 to about 0.16. […] The particular ionic strength of a given composition for long term storage provided herein may be determined empirically using standard stability assays well known to those of skill in the art (see, e.g., the Examples).

[3] = tested on: patients with reversible obstructive respiratory diseases; conditions: cited from earlier work

Q: For COc1ccc(CC(C)NCC(O)c2ccc(O)c(NC=O)c2)cc1 (racemic) [formoterol, 2-hydroxy-5-((1RS)-1-hydroxy-2-(((1RS)-2-(p-methoxyphenyl)-1-methylethyl)amino)ethyl)formanilide], which estimated shelf-life ([1]; 5° C.) is on record?
A: about 6.2 years

Q: And the estimated shelf-life ([1]; 25° C.)?
A: about 7.5 months

Q: What about the “pH at which decomposition is slowest” value ([2]; aqueous solution, 60° C., buffer concentration 5 mM, ionic strength 0.05) of the same compound?
A: about 5.0

Q: And the “rate constant (kobs) for decomposition” value ([2]; aqueous solution, 60° C., pH 3, buffer concentration 5 mM, ionic strength 0.05)?
A: approximately 0.62 day^−1

Q: And the “rate constant (kobs) for decomposition” value ([2]; aqueous solution, 60° C., pH 4, buffer concentration 5 mM, ionic strength 0.05)?
A: ~0.11 day⁻¹

Q: What about the “rate constant (kobs) for decomposition” value ([2]; aqueous solution, 60° C., pH 5, buffer concentration 5 mM, ionic strength 0.05) of the same compound?
A: ~0.044 day⁻¹

Q: And the “rate constant (kobs) for decomposition” value ([2]; aqueous solution, 60° C., pH 7, buffer concentration 5 mM, ionic strength 0.05)?
A: ~0.55 day⁻¹

Q: What about the “effect of buffer concentration on rate constant of decomposition” value ([2]; low and approximately neutral pH conditions, buffer concentration 5 mM to 20 mM) of the same compound?
A: increased the rate constant of decomposition significantly

Q: And the “effect of buffer concentration on rate constant of decomposition” value ([2]; pH region of about 4.5 to about 5.5, buffer concentration 5 mM to 20 mM)?
A: no noticeable differences in rate constant were observed

Q: And the “duration of bronchodilatory effect” value [3]?
A: greater than 12 hours

Q: What about the “onset of bronchodilatory effect” value [3] of the same compound?
A: 1 to 3 min

Q: What about the aqueous solubility (pH between about 5 and about 7, ambient temperature) of the same compound?
A: approximately 2.2 mg/mL

Q: What about the aqueous solubility (pH of about 3, ambient temperature) of the same compound?
A: about 4.8 mg/mL

Q: And the aqueous solubility (pH of about 4, ambient temperature)?
A: approximately 3 mg/mL

Q: What about the “solubility in pure water” value (pure water (HPLC water), ambient temperature) of the same compound?
A: approximately 2 mg/mL
